Assay results: patent US20230295197A1, “STAT5 and STAT6 Degraders and Uses Thereof” (REGENTS OF THE UNIVERSITY OF MICHICAN, priority 2022, published 2023)
Like-named read-outs stand apart in the source and are kept apart here. *1 amine or outer side, *2 acyl side, *3 side chain or, on linkers, in order; H or OH if unused. Where a SMILES comes first, the peptide text is derived from it. [ ]: non-standard residue; d: D form. The star is where a group is joined. Benzothienyl2CO(5-CF2PO3H2) = O=C(c1cc2cc(C(F)(F)P(=O)(O)O)ccc2s1)*; βAla(N-(4-Br-phenyl)) = O=C(CCN(c1ccc(Br)cc1)[*:1])[*:2]; NHBn(4-(4-Me-thiazol-5-yl)) = Cc1ncsc1-c1ccc(CN*)cc1; Hyp = O=C(O)[C@@H]1C[C@@H](O)CN1; Tle = CC(C)(C)[C@H](N)C(=O)O; Aoc = NCCCCCCCC(=O)O

Molecular target: T1, STAT6 (Homo sapiens, UniProt P42226)
T1 construct: endogenous in cells; host or cells: MOLM-16, KU-812, SKNO1, MB231, L1236
T1 sequence (P42226 1-847): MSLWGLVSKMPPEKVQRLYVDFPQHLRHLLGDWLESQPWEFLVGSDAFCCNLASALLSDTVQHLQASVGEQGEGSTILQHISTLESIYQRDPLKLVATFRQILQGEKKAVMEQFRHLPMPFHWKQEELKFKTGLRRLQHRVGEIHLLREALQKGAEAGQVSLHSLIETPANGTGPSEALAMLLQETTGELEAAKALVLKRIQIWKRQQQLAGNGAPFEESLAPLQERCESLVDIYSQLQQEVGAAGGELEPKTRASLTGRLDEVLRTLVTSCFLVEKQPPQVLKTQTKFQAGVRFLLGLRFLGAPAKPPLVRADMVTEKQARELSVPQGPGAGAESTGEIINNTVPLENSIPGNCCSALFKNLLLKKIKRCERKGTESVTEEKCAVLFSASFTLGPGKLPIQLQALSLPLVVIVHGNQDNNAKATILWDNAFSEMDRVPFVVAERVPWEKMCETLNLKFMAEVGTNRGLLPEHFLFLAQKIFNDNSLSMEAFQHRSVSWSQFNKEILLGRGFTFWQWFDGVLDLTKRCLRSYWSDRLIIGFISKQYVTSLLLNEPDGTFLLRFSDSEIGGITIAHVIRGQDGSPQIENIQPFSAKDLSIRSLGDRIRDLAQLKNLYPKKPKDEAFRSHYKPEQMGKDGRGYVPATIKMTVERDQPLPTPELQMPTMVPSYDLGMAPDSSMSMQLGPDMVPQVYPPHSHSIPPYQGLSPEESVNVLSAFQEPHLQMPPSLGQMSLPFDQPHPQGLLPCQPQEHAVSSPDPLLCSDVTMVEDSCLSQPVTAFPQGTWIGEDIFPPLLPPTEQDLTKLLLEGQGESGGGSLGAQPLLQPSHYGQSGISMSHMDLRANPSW
Experiment: Immunoblotting (Western blot) analysis of STAT6 degradation efficiency of degraders in treated cells
Type: cell-based
Procedure, shortened: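 Cells (~1 million per point) treated with compounds at indicated concentrations and times, lysed in RIPA with protease/phosphatase inhibitors; 20-40 μg protein run on SDS-PAGE and blotted to PVDF. STAT6 or STAT5 rabbit mAbs with GAPDH loading control, IRDye secondaries; near-infrared fluorescence scan, band intensity quantified.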

[1] = L1236 cells, read-out: DC50 S6 L1236
[2] = MOLM-16 cells, class symbols, read-out: DC50 S6 MOLM-16

| SMILES | DC50 [2] | further results |
| --- | --- | --- |
| Cc1ncsc1-c1ccc([C@H](C)NC(=O)[C@@H]2C[C@@H](O)CN2C(=O)[C@@H](NC(=O)CCCCCCCCNC(=O)COc2ccc3c(c2)CN(C(=O)[C@@H](NC(=O)c2cc4cc(C(F)(F)P(=O)(O)O)ccc4s2)C(C)(C)C)[C@H](C(=O)N2CCO[C@H](c4ccccc4)C2)C3)C(C)(C)C)cc1 [Compound 468, (difluoro(2-(((S)-1-((S)-7-(2-((9-(((S)-1-((2S,4R)-4-hydroxy-2-(((S)-1-(4-(4-methylthiazol-5-yl)phenyl)ethyl)carbamoyl)pyrrolidin-1-yl)-3,3-dimethyl-1-oxobutan-2-yl)amino)-9-oxononyl)amino)-2-oxoethoxy)-3-((R)-2-phenylmorpholine-4-carbonyl)-3,4-dihydroisoquinolin-2(1H)-yl)-3,3-dimethyl-1-oxobutan-2-yl)carbamoyl)benzo[b]thiophen-5-yl)methyl)phosphonic acid] | > 10 µM | DC50 [1]: > 10 µM |
| Cc1ncsc1-c1ccc([C@H](C)NC(=O)[C@@H]2C[C@@H](O)CN2C(=O)[C@H](NC(=O)CNC(=O)CO[C@H]2C[C@@H](C(=O)N3CCO[C@H](c4ccccc4)C3)N(C(=O)[C@@H](NC(=O)c3cc4cc(C(F)(F)P(=O)(O)O)ccc4s3)C(C)(C)C)C2)C(C)(C)C)cc1 [Compound 425, (difluoro(2-(((S)-1-((2S,4S)-4-(2-((2-(((R)-1-((2S,4R)-4-hydroxy-2-(((S)-1-(4-(4-methylthiazol-5-yl)phenyl)ethyl)carbamoyl)pyrrolidin-1-yl)-3,3-dimethyl-1-oxobutan-2-yl)amino)-2-oxoethyl)amino)-2-oxoethoxy)-2-((R)-2-phenylmorpholine-4-carbonyl)pyrrolidin-1-yl)-3,3-dimethyl-1-oxobutan-2-yl)carbamoyl)benzo[b]thiophen-5-yl)methyl)phosphonic acid] | > 10 µM | DC50 [1]: > 10 µM |
| CC(C)(C)[C@H](NC(=O)c1cc2cc(C(F)(F)P(=O)(O)O)ccc2s1)C(=O)N1Cc2cc(OCC(=O)NCC#Cc3cccc4c3C(=O)N(C3CCC(=O)NC3=O)C4=O)ccc2C[C@H]1C(=O)N1CCC[C@H](c2ccccc2)C1 (stereo partly drawn) [Compound 549, ((2-(((2S)-1-((3S)-7-(2-((3-(2-(2,6-dioxopiperidin-3-yl)-1,3-dioxoisoindolin-4-yl)prop-2-yn-1-yl)amino)-2-oxoethoxy)-3-((R)-3-phenylpiperidine-1-carbonyl)-3,4-dihydroisoquinolin-2(1H)-yl)-3,3-dimethyl-1-oxobutan-2-yl)carbamoyl)benzo[b]thiophen-5-yl)difluoromethyl)phosphonic acid] | > 10 µM | – |
| Cc1cc([C@H](C(=O)N2C[C@H](O)C[C@H]2C(=O)N[C@@H](CC(=O)NCCCCCCNC(=O)CO[C@@H]2C[C@@H](C(=O)N(C)c3ccc(Br)cc3)N(C(=O)[C@@H](NC(=O)c3cc4cc(C(F)(F)P(=O)(O)O)ccc4s3)C(C)(C)C)C2)c2ccc(-c3scnc3C)cc2)C(C)C)on1 [Compound 422, ((2-(((S)-1-((2S,4R)-2-((4-bromophenyl)(methyl)carbamoyl)-4-(2-((6-((S)-3-((2S,4R)-4-hydroxy-1-((R)-3-methyl-2-(3-methylisoxazol-5-yl)butanoyl)pyrrolidine-2-carboxamido)-3-(4-(4-methylthiazol-5-yl)phenyl)propanamido)hexyl)amino)-2-oxoethoxy)pyrrolidin-1-yl)-3,3-dimethyl-1-oxobutan-2-yl)carbamoyl)benzo[b]thiophen-5-yl)difluoromethyl)phosphonic acid] | > 10 µM | – |
| Cc1cc([C@H](C(=O)N2C[C@H](O)C[C@H]2C(=O)N[C@@H](CC(=O)NCCCCCCCCNC(=O)CCN(C(=O)[C@@H]2CCCN2C(=O)[C@@H](NC(=O)c2cc3cc(C(F)(F)P(=O)(O)O)ccc3s2)C(C)(C)C)c2ccc(Br)cc2)c2ccc(-c3scnc3C)cc2)C(C)C)on1 [Compound 408, ((2-(((S)-1-((S)-2-((4-bromophenyl)(3-((8-((S)-3-((2S,4R)-4-hydroxy-1-((R)-3-methyl-2-(3-methylisoxazol-5-yl)butanoyl)pyrrolidine-2-carboxamido)-3-(4-(4-methylthiazol-5-yl)phenyl)propanamido)octyl)amino)-3-oxopropyl)carbamoyl)pyrrolidin-1-yl)-3,3-dimethyl-1-oxobutan-2-yl)carbamoyl)benzo[b]thiophen-5-yl)difluoromethyl)phosphonic acid] | – | DC50 (MB231 cells, read-out: DC50 S6 MB231): > 10 µM |
| Cc1ncsc1-c1ccc([C@H](C)NC(=O)[C@@H]2C[C@@H](O)CN2C(=O)[C@@H](NC(=O)CCCCCCCCNC(=O)COc2ccc3c(c2)CN(C(=O)[C@@H](NC(=O)c2cc4cc(C(F)(F)P(=O)(O)O)ccc4s2)C(C)(C)C)[C@H](C(=O)N2CCC[C@H](c4ccccc4)C2)C3)C(C)(C)C)cc1 [Compound 477, (difluoro(2-(((S)-1-((S)-7-(2-((9-(((S)-1-((2S,4R)-4-hydroxy-2-(((S)-1-(4-(4-methylthiazol-5-yl)phenyl)ethyl)carbamoyl)pyrrolidin-1-yl)-3,3-dimethyl-1-oxobutan-2-yl)amino)-9-oxononyl)amino)-2-oxoethoxy)-3-((R)-3-phenylpiperidine-1-carbonyl)-3,4-dihydroisoquinolin-2(1H)-yl)-3,3-dimethyl-1-oxobutan-2-yl)carbamoyl)benzo[b]thiophen-5-yl)methyl)phosphonic acid] | > 10 µM | – |
| CC(C)(C)[C@H](NC(=O)c1cc2cc(C(F)(F)P(=O)(O)O)ccc2s1)C(=O)N1C[C@@H](OCC(=O)NCCCCCC#Cc2cccc3c2C(=O)N(C2CCC(=O)NC2=O)C3=O)C[C@H]1C(=O)N1CCC[C@H](c2ccccc2)C1 (stereo partly drawn) [Compound 501, ((2-(((2S)-1-((2S,4S)-4-(2-((7-(2-(2,6-dioxopiperidin-3-yl)-1,3-dioxoisoindolin-4-yl)hept-6-yn-1-yl)amino)-2-oxoethoxy)-2-((R)-3-phenylpiperidine-1-carbonyl)pyrrolidin-1-yl)-3,3-dimethyl-1-oxobutan-2-yl)carbamoyl)benzo[b]thiophen-5-yl)difluoromethyl)phosphonic acid] | > 10 µM | – |
| Cc1ncsc1-c1ccc(CNC(=O)[C@@H]2C[C@@H](O)CN2C(=O)[C@@H](NC(=O)CCCCCCCNC(=O)CCN(C(=O)[C@@H]2CCCN2C(=O)[C@@H](NC(=O)c2cc3cc(C(F)(F)P(=O)(O)O)ccc3s2)C(C)(C)C)c2ccc(Br)cc2)C(C)(C)C)cc1 [Compound 398] ({Benzothienyl2CO(5-CF2PO3H2)}-[Tle]P[βAla(N-(4-Br-phenyl))][Aoc][Tle][Hyp]-{NHBn(4-(4-Me-thiazol-5-yl))}) | – | DC50 (read-out: DC50 S6 MB231, MB231 cells): > 10 µM |
| CC(C)(C)[C@H](NC(=O)c1cc2cc(C(F)(F)P(=O)(O)O)ccc2s1)C(=O)N1C[C@@H](OCCN2CCC(C#Cc3cccc4c3CN(C3CCC(=O)NC3=O)C4=O)CC2)C[C@H]1C(=O)N1CCO[C@H](c2ccccc2)C1 (stereo partly drawn) [Compound 604, ((2-(((2S)-1-((2S,4S)-4-(2-(4-((2-(2,6-dioxopiperidin-3-yl)-1-oxoisoindolin-4-yl)ethynyl)piperidin-1-yl)ethoxy)-2-((R)-2-phenylmorpholine-4-carbonyl)pyrrolidin-1-yl)-3,3-dimethyl-1-oxobutan-2-yl)carbamoyl)benzo[b]thiophen-5-yl)difluoromethyl)phosphonic acid] | – | DC50 (MOLM-16 cells, numeric bound, read-out: DC50 S6 MOLM-16): > 0.3 µM |
| CC(C)(C)[C@H](NC(=O)c1cc2cc(C(F)(F)P(=O)(O)O)ccc2s1)C(=O)N1C[C@@H](OCC(=O)NCCCCCCCCCC#Cc2ccc3c(c2)C(=O)N(C2CCC(=O)NC2=O)C3=O)C[C@H]1C(=O)N1CCC[C@H](c2ccccc2)C1 (stereo partly drawn) [Compound 506, ((2-(((2S)-1-((2S,4S)-4-(2-((11-(2-(2,6-dioxopiperidin-3-yl)-1,3-dioxoisoindolin-5-yl)undec-10-yn-1-yl)amino)-2-oxoethoxy)-2-((R)-3-phenylpiperidine-1-carbonyl)pyrrolidin-1-yl)-3,3-dimethyl-1-oxobutan-2-yl)carbamoyl)benzo[b]thiophen-5-yl)difluoromethyl)phosphonic acid] | > 10 µM | – |
| CC(C)(C)[C@H](NC(=O)c1cc2cc(C(F)(F)P(=O)(O)O)ccc2s1)C(=O)N1Cc2cc(OCC(=O)NCCC#Cc3cccc4c3C(=O)N(C3CCC(=O)NC3=O)C4=O)ccc2C[C@H]1C(=O)N1CCO[C@H](c2ccccc2)C1 (stereo partly drawn) [Compound 537, ((2-(((2S)-1-((3S)-7-(2-((4-(2-(2,6-dioxopiperidin-3-yl)-1,3-dioxoisoindolin-4-yl)but-3-yn-1-yl)amino)-2-oxoethoxy)-3-((R)-2-phenylmorpholine-4-carbonyl)-3,4-dihydroisoquinolin-2(1H)-yl)-3,3-dimethyl-1-oxobutan-2-yl)carbamoyl)benzo[b]thiophen-5-yl)difluoromethyl)phosphonic acid] | > 10 µM | – |
